Experimental data reported in US5670520A, “Method for inhibiting virus replication in mammalian cells using carbostyil derivatives” (Otsuka Pharmaceutical Co., Ltd., priority 1996, dated 1997).

What was measured:
ZEBRA, R, EA-R, EA-D = assay: Western immunoblot of EBV early antigens in Akata cells; type: cell-based, Epstein-Barr virus; conditions: 30 μg/ml vesnarinone
Protocol: 1 hr after release and transfer, the above-described anti-IgG antibody was added at a concentration of 50 μg/ml. 3 hrs and 20 hrs after treatment with the anti-IgG, the cells were harvested for the detection of EBV early antigens ZEBRA (BZLF1 product) by Western immunoblot.
More specifically, cells were washed with PBS, and then lysed at 4° C. in a buffer comprising 25 mM Tris-HCl (pH 7.4), 50 mM NaCl, 0.5% (w/v) sodium deoxycholate, 2.0% (v/v) Nonidet P-40, 0.2% (w/v) SDS, 1.0 mM phenyl-methane sulfonyl fluoride (PMSF), 10 μg/ml aprotinin, 10 μM leupeptin, and 100 μM sodium orthovanadate. After centrifugation, lysates were prepared for electrophoresis as described by Laemmli, Nature, 227:680-685 (1970). An amount of lysate equivalent to 4.0×10^5 cells was used for each immunoblot analysis.
After electrophoretic transfer of proteins to nitrocellulose filters and blocking the filters with 20 mM Tris-HCl (pH 8.0), 125 mM NaCl, 0.1% (v/v) Tween-20, 2.0% (w/v) BSA, and 0.1% (w/v) sodium azide, the filters were incubated with the appropriate primary antibody. For detection of ZEBRA (EB1, BZLF1 gene product), the antibody used was mouse monoclonal anti-EB1 (Z-125); for the detection of R (BRLF1 product), the antibody used was the mouse monoclonal anti-R (R5A9, provided by Dr. Evelyn Manet); for the detection of EA-R (BHRF1 product), monoclonal anti-EA-R (5B11, provided by Dr. Elliott Kieff) (Pearson et al, Virol., 160:151-161 (1987); and Henderson et al, Proc. Natl. Acad. Sci. USA, 90:8479-8483 (1993)), and for the detection of EA-D (BMRF1 product), the antibody used with the mouse monoclonal anti-EA-D (NEA-9240, DuPont, Boston, Mass. (Pearson et al, J. Virol., 47:193-201 (1983); and Kiehl et al, Virol., 184:330-340 (1991))).
Specific reactive bands were detected using anti-mouse secondary antibodies conjugated to alkaline phosphatase (Promega, Madison, Wis.) or horseradish peroxidase (Amersham) or ECL chemiluminescence (Amersham). That is, for detection of ZEBRA and R, alkaline phosphatase was used. For detection of EA-R and EA-D, horseradish peroxidase and the ECL chemiluminescence method was used (Amersham). Development was by the conventional methods, employing the colorogenic substrates bromochloroindolyl phosphate and nitroblue tetrazolium for alkaline phosphatase. The expression of ZEBRA reached a plateau level 3 hrs after stimulation and productive replication of EBV ceased 12 hrs after stimulation in this system.

ZEBRA = assay: Flow cytometric detection of ZEBRA in Akata cells; type: cell-based, Epstein-Barr virus; conditions: 3 hrs after anti-IgG; vesnarinone 0-100 μg/ml
Protocol: The human Burkitt's lymphoma cell line, Akata, provided by Dr. Kenzo Takada (Takada, Int. J. Cancer, 33:27-32 (1984); and Takada et al, Virus Genes, 5:147-156 (1991)), was cultured at 37° C. in RPMI 1640 medium supplemented with 15% (v/v) heat-inactivated FCS, and 20 μg/ml gentamicin.
The cell progression of Akata cells was arrested by culturing of the cells for 96 hrs in the presence of 1.5% (y/v) DMSO (Sigma, St. Louis, Mo.) (Sawai et al, Exp. Cell Res., 187:4-10 (1990); and Takase et al, Cell Growth Differ., 3:515-521 (1992)).
1 hr after transfer (release from DMSO), a goat F(ab')2 fragment of anti-human IgG antibody (Organon Teknika, Durham, N.C.) was added at a concentration of 50 μg/ml to induce productive EBV replication (Takagi et al, Virology, 185:309-315 (1991)). […]
For flow cytometric detection of ZEBRA, after a 60 min fixation with 70% (v/v) ethanol at 4° C., 10^6 cells were centrifuged, and washed with PBS. […] The cells were washed with PBS again, and analyzed by flow cytometry (Epics Profile, Coulter), monitoring fluorescence (520-540 nm) in a logarithmic scale with 488 nm excitation. The positivity for ZEBRA was calculated by a non-linear least squares method (Takase et al, J. Immunol. Methods, 118:129-138 (1989)).

U937 cells [1] = assay: [3H]thymidine uptake in U937 cells within 1 min; type: cell-based, human; conditions: 0-250 μM vesnarinone or 0-1000 nM dipyridamole
Protocol: Dipyridamole was prepared as a 50 mM stock solution dissolved in ethanol.

human T cells = assay: [3H]thymidine incorporation by PHA-stimulated human T cells; type: cell-based; conditions: 10 μg/ml PHA 48 hrs, 0-250 μM vesnarinone, 6 hrs pulse
Protocol: More specifically, human primary T cells were separated from peripheral blood obtained by leukopheresis of healthy donors. Mononuclear cell suspensions were prepared by Ficoll-Hypaque gradient centrifugation, and T cells were obtained by E-rosette enrichment as described by Kumagai et al, J. Cell. Physiol., 137:329 (1988).
Then, 1.0 μCi of [^3 H]thymidine (6.7 Ci/mmole, ICN), was added to 2.0×10^6 cells (100 μl), and the cells were pulse-labeled for 6 hrs.

U937 cells [2] = assay: Intracellular AZT-MP, AZT-DP, AZT-TP in U937 cells by HPLC; conditions: vesnarinone 75 μM (30 μg/ml); [3H]AZT 2 hr
Protocol: 1.0 ml fractions were collected, and the radioactivity was measured by liquid scintillation. The retention time for AZT and AZT-MP was confirmed using cold AZT and AZT-MP (Sigma) under the same conditions.
Intracellular concentrations of [^3 H]AZT-MP, [^3 H]AZT-DP, and [^3 H]AZT-TP were measured using HPLC as described above.

CHO cells = assay: Rapid uptake of [3H]thymidine / [3H]AZT in CHO cells; conditions: 0-250 μM vesnarinone, 1 min
Protocol: Then, 1.0 μCi/ml of [^3 H]thymidine (6.7 Ci/mmol) or 1.0 μCi/ml of [^3 H]AZT (14 Ci/mmol) was added, and the mixture was immediately layered on silicone oil/paraffin oil (96:6) in microfuge tubes. […] The water and oil phases were discarded, and radioactivity of the cell pellets was measured using liquid scintillation counting.

**Q.** Which “expression of ZEBRA (BZLF1)” value (ZEBRA, R, EA-R, EA-D; 3 hrs after anti-IgG) does the source give for COc1ccc(C(=O)N2CCN(c3ccc4c(c3)CCC(=O)N4)CC2)cc1OC [vesnarinone, 3,4-dihydro-6-[4-(3,4-dimethoxybenzoyl)-1-piperazinyl]-2(1H)-quinoline] here?
**A.** suppressed 3 hrs after stimulation with anti-IgG to a limited extent

**Q.** What about the “expression of EA-R (BHRF1)” value (ZEBRA, R, EA-R, EA-D; 3 hrs and 20 hrs) of the same compound?
**A.** expressed to the same degree 3 hrs and 20 hrs after stimulation

**Q.** What about the “expression of R (BRLF1)” value (ZEBRA, R, EA-R, EA-D; 3 hrs and 20 hrs) of the same compound?
**A.** expressed virtually at the same level in the presence or absence of vesnarinone

**Q.** What about the “expression of EA-D (BMRF1)” value (ZEBRA, R, EA-R, EA-D; 20 hrs after stimulation) of the same compound?
**A.** dramatically suppressed in the presence of vesnarinone

**Q.** What about the “degree of positivity for ZEBRA” value (ZEBRA) of the same compound?
**A.** not decreased by vesnarinone at concentrations less than or equal to 10 μg/ml

**Q.** What about the uptake of thymidine (U937 cells [1]) of the same compound?
**A.** inhibited the uptake of thymidine in a dose-dependent manner

**Q.** And the “[3H]thymidine incorporation into DNA” value (human T cells)?
**A.** inhibits [^3 H]thymidine incorporation into DNA in a dose-dependent manner

**Q.** And the “increase of intracellular AZT-DP” value (U937 cells [2])?
**A.** 45%

**Q.** What about the “increase of intracellular AZT-MP” value (U937 cells [2]) of the same compound?
**A.** 100%

**Q.** And the “uptake of [3H]AZT” value (CHO cells)?
**A.** the uptake of [^3 H]AZT was not affected by vesnarinone

**Q.** What about the “uptake of [3H]thymidine” value (CHO cells) of the same compound?
**A.** inhibits the uptake of [^3 H]thymidine in a dose-dependent manner
